# Measured values as given in the supplement of paper PMC10307832.
# Compound: COc1cccc2c1C(=O)c1c(O)c3c(c(O)c1C2=O)C[C@@](O)(C(=O)CO)C[C@@H]3O[C@H]1C[C@H](N)[C@H](O)[C@H](C)O1 [Doxorubicin] + COc1cc2c(Oc3ccc(NC(=O)C4(C(=O)Nc5ccc(F)cc5)CC4)cc3F)ccnc2cc1OCCCN1CCOCC1 [Foretinib] (partner 0.25 µM)
# Experiment: relative viability (nuclei count vs DMSO), 5 days (fraction); higher = more cells survive
# Details: first compound 0.001 µM
# How it was run: (§1)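 One day after seeding in 1536-well plates, lung cancer cell lines were dosed by pin tool. Dosing was either single-drug or a fixed anchor-drug dose plus five library-drug doses (not always all listed) in √10 steps. After 5 days, nuclei were stained in one fix-and-stain step and counted on 4× images, and relative viability is the nuclei count of treated wells over that of vehicle wells, given as the median of duplicate plates.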
row,Cell Line,relative viability
1,NCI-H3122,0.959
2,NCI-H1395,0.949
3,201T,0.963
4,NCI-H1975,0.998
5,HOP-62,1.05
6,NCI-H2405,1.02
7,NCI-H1355,0.97
8,NCI-H838,1.1
9,CAL-12T,1.03
10,NCI-H1666,0.964
11,EPLC-272H,0.899
12,NCI-H2347,0.845
13,NCI-H1915,1.1
14,NCI-H1437,1.16
15,NCI-H460,0.965
16,NCI-H2085,1.05
17,NCI-H1944,0.848
18,EKVX,0.735
19,NCI-H1650,0.967
20,NCI-H2170,0.994
21,NCI-H1993,0.876
22,SK-MES-1,1
23,PC-14,1

# Same assay, conditions: first compound 0.003162 µM
row,Cell Line,relative viability
1,NCI-H3122,0.918
2,NCI-H441,1.04
3,NCI-H1395,1.05
4,201T,1.03
5,NCI-H1975,1
6,HOP-62,1.07
7,NCI-H2405,1.1
8,NCI-H1355,1.01
9,NCI-H838,1.07
10,CAL-12T,1.07
11,NCI-H1666,0.872
12,EPLC-272H,0.67
13,NCI-H2347,0.847
14,NCI-H1915,1.11
15,NCI-H1437,1.26
16,NCI-H460,1.09
17,NCI-H2085,0.981
18,HCC-15,0.922
19,NCI-H1944,0.945
20,EKVX,0.891
21,NCI-H1650,1.38
22,NCI-H2170,1.07
23,NCI-H1993,0.851
24,NCI-H23,0.863
25,SK-MES-1,0.843
26,PC-14,0.967
27,HCC-366,0.963

# Same assay, conditions: first compound 0.01 µM
row,Cell Line,relative viability
1,NCI-H3122,0.944
2,NCI-H441,0.897
3,NCI-H1395,0.953
4,201T,1.02
5,NCI-H1975,0.879
6,HOP-62,1.06
7,NCI-H2405,1.02
8,NCI-H1355,0.884
9,NCI-H838,1.06
10,CAL-12T,1.04
11,NCI-H1666,0.792
12,EPLC-272H,0.753
13,NCI-H2347,0.708
14,NCI-H1915,1.02
15,NCI-H1437,1.24
16,NCI-H460,0.843
17,NCI-H2085,1.08
18,HCC-15,0.94
19,NCI-H1944,0.908
20,EKVX,0.912
21,NCI-H1650,0.859
22,NCI-H2170,0.998
23,NCI-H1993,0.769
24,NCI-H23,1.03
25,SK-MES-1,0.923
26,PC-14,0.998
27,HCC-366,0.967

# Same assay, conditions: first compound 0.03162 µM
row,Cell Line,relative viability
1,NCI-H3122,0.942
2,NCI-H441,0.48
3,NCI-H1395,0.892
4,201T,0.898
5,NCI-H1975,0.855
6,HOP-62,1.11
7,NCI-H2405,1.09
8,NCI-H1355,0.91
9,NCI-H838,0.85
10,CAL-12T,0.568
11,NCI-H1666,0.5
12,EPLC-272H,0.517
13,NCI-H2347,1.02
14,NCI-H1915,1.06
15,NCI-H1437,1.1
16,NCI-H460,0.105
17,NCI-H2085,0.923
18,HCC-15,0.49
19,NCI-H1944,0.812
20,EKVX,0.831
21,NCI-H1650,0.291
22,NCI-H2170,0.96
23,NCI-H1993,0.673
24,NCI-H23,0.855
25,SK-MES-1,0.818
26,PC-14,0.912
27,HCC-366,1.01

# Same assay, conditions: first compound 0.1 µM
row,Cell Line,relative viability
1,NCI-H3122,0.904
2,NCI-H441,0.368
3,NCI-H1395,0.92
4,201T,0.523
5,NCI-H1975,0.444
6,HOP-62,1.16
7,NCI-H2405,1
8,NCI-H1355,0.897
9,NCI-H838,0.438
10,CAL-12T,0.35
11,NCI-H1666,0.468
12,EPLC-272H,0.78
13,NCI-H2347,0.714
14,NCI-H1915,1.1
15,NCI-H1437,0.621
16,NCI-H460,0.0481
17,NCI-H2085,0.855
18,HCC-15,0.404
19,NCI-H1944,0.869
20,EKVX,0.704
21,NCI-H1650,0.181
22,NCI-H2170,0.97
23,NCI-H1993,0.839
24,NCI-H23,0.981
25,SK-MES-1,0.766
26,PC-14,0.931
27,HCC-366,0.94

# Compound: COc1cccc2c1C(=O)c1c(O)c3c(c(O)c1C2=O)C[C@@](O)(C(=O)CO)C[C@@H]3O[C@H]1C[C@H](N)[C@H](O)[C@H](C)O1 [Doxorubicin] + Nc1nc2[nH]cc(CCc3ccc(C(=O)N[C@@H](CCC(=O)O)C(=O)O)cc3)c2c(=O)[nH]1 [Pemetrexed] (partner 0.2 µM)
# Experiment: as above
# Details: first compound 0.001 µM
# How it was run: as §1
row,Cell Line,relative viability
1,NCI-H3122,0.203
2,NCI-H441,0.253
3,NCI-H1395,0.887
4,201T,0.344
5,NCI-H1975,0.268
6,HOP-62,0.356
7,NCI-H2405,1.05
8,NCI-H1355,1
9,NCI-H838,0.252
10,CAL-12T,1.1
11,EPLC-272H,0.365
12,NCI-H2347,0.417
13,NCI-H1915,0.533
14,NCI-H1437,0.32
15,NCI-H460,0.0538
16,NCI-H2085,0.904
17,HCC-15,0.239
18,NCI-H1944,0.606
19,EKVX,0.336
20,NCI-H1650,0.37
21,NCI-H2170,0.248
22,NCI-H1993,0.603
23,NCI-H23,0.515
24,SK-MES-1,0.926
25,PC-14,0.139
26,HCC-366,0.301

# Same assay, conditions: first compound 0.003162 µM
row,Cell Line,relative viability
1,NCI-H3122,0.208
2,NCI-H441,0.264
3,NCI-H1395,1.02
4,201T,0.325
5,NCI-H1975,0.29
6,HOP-62,0.34
7,NCI-H2405,1.11
8,NCI-H1355,1.02
9,NCI-H838,0.228
10,CAL-12T,1.22
11,NCI-H1666,0.858
12,EPLC-272H,0.372
13,NCI-H2347,0.424
14,NCI-H1915,0.529
15,NCI-H1437,0.297
16,NCI-H460,0.064
17,NCI-H2085,0.943
18,HCC-15,0.215
19,NCI-H1944,0.602
20,EKVX,0.404
21,NCI-H1650,0.374
22,NCI-H2170,0.265
23,NCI-H1993,0.685
24,NCI-H23,0.685
25,SK-MES-1,0.899
26,PC-14,0.135
27,HCC-366,0.18

# Same assay, conditions: first compound 0.01 µM
row,Cell Line,relative viability
1,NCI-H3122,0.334
2,NCI-H441,0.265
3,NCI-H1395,1.08
4,201T,0.352
5,NCI-H1975,0.277
6,HOP-62,0.302
7,NCI-H2405,1.05
8,NCI-H1355,1
9,NCI-H838,0.229
10,CAL-12T,1.03
11,NCI-H1666,0.724
12,EPLC-272H,0.377
13,NCI-H2347,0.42
14,NCI-H1915,0.525
15,NCI-H1437,0.303
16,NCI-H460,0.0574
17,NCI-H2085,0.939
18,HCC-15,0.228
19,NCI-H1944,0.643
20,EKVX,0.426
21,NCI-H1650,0.381
22,NCI-H2170,0.32
23,NCI-H1993,0.58
24,NCI-H23,0.667
25,SK-MES-1,0.872
26,PC-14,0.118
27,HCC-366,0.171

# Same assay, conditions: first compound 0.03162 µM
row,Cell Line,relative viability
1,NCI-H3122,0.194
2,NCI-H441,0.229
3,NCI-H1395,0.7
4,201T,0.338
5,NCI-H1975,0.306
6,HOP-62,0.25
7,NCI-H2405,0.942
8,NCI-H1355,1.01
9,NCI-H838,0.256
10,CAL-12T,0.38
11,NCI-H1666,0.782
12,EPLC-272H,0.322
13,NCI-H2347,0.507
14,NCI-H1915,0.568
15,NCI-H1437,0.315
16,NCI-H460,0.0641
17,NCI-H2085,1.1
18,HCC-15,0.205
19,NCI-H1944,0.504
20,EKVX,0.45
21,NCI-H1650,0.242
22,NCI-H2170,0.252
23,NCI-H1993,0.57
24,NCI-H23,0.661
25,SK-MES-1,0.291
26,PC-14,0.0995
27,HCC-366,0.201

# Same assay, conditions: first compound 0.1 µM
row,Cell Line,relative viability
1,NCI-H3122,0.174
2,NCI-H441,0.224
3,NCI-H1395,0.537
4,201T,0.351
5,NCI-H1975,0.225
6,HOP-62,0.349
7,NCI-H2405,0.445
8,NCI-H1355,1.04
9,NCI-H838,0.236
10,CAL-12T,0.248
11,NCI-H1666,0.757
12,EPLC-272H,0.298
13,NCI-H2347,0.463
14,NCI-H1915,0.502
15,NCI-H1437,0.329
16,NCI-H460,0.0392
17,NCI-H2085,0.802
18,HCC-15,0.205
19,NCI-H1944,0.495
20,EKVX,0.257
21,NCI-H1650,0.19
22,NCI-H2170,0.274
23,NCI-H1993,0.528
24,NCI-H23,0.444
25,SK-MES-1,0.234
26,PC-14,0.0845
27,HCC-366,0.161
